Laboratory results published in patent publication US20260263533A1, “COMBINATION OF BIFIDOBACTERIUM AND FUCOSYLATED HMO FOR USE IN INCREASING NMN OR NAD+” (DSM IP Assets B.V., priority 2022, published 2026).

Tests used:
[1] = test system: B. bifidum 32403; assay: BioLector growth on carbon sources; assay type: cell-based, Bifidobacterium bifidum; conditions: for Ability to grow on carbon source: 1% carbon source in MRS without glucose, 37° C., up to 72 hours, anaerobic
Procedure: (§1) Initial overnight cultures in de Man, Rogosa, and Sharpe (MRS) medium with glucose (Merck, cat #110661) were prepared in an anaerobic chamber with mixed gas (90% N2, 5% CO2, and 5% H2) at 37° C. From the overnight cultures strains were subcultured 1:100 or 1:10 (if slow growing) into fresh MRS (with glucose) and grown to mid-log (without shaking) in the anerobic chamber at 37° C. For the carbohydrate utilization analysis, a BioLector (automated culturomics equipment, Biosciences) was used. Cells were inoculated 1:100 into MRS (without glucose, Liofilchem Cat #610144) in a 48 well MTP plate (Biosciences) containing 1% of one of the following carbon sources: glucose, lactose, a HMO mixture (containing 2′FL, 2′FL: DFL (range of 6:1-8:1), 3FL, 3′SL, 6′SL, LNnT and LNT in equal portions), HMO mixture+lactose or sterile DI water (as no sugar control) in a final volume of 2 mL and grown in the BioLector at 37° C. for up to 72 hours, shaking at 400 rpm under anaerobic conditions and continuous nitrogen gas flow. If a strain grew on the HMO mixture the experiment was repeated with the individual HMOs of the mixture as carbon source. Change in biomass, pH, and dissolved oxygen was monitored every 20 minutes by the BioLector. A minimum of two replicates were completed for each carbon source. Samples were transferred to a 96 deep-well plate, spun down at 4000 rpm for 10 min at 4° C., and supernatants removed for analysis or stored at −80° C. until further analysis.

[2] = test system: B. bifidum HA-132; assay: BioLector growth on carbon sources; assay type: cell-based, Bifidobacterium bifidum; conditions: 1% carbon source in MRS without glucose, 37° C., up to 72 hours, anaerobic
Procedure: as §1

[3] = test system: B. bifidum R0071; assay: BioLector growth on carbon sources; assay type: cell-based, Bifidobacterium bifidum; parameters: key: +++: fast exponential growth reaching a plateau before 45 hours; ++: slower exponential growth reaching a plateau after 45 hours; +: slow almost linear growth, does not reach plateau during the time of fermentation; −: No significant growth for 50 h or more; conditions: 1% carbon source in MRS without glucose, 37° C., up to 72 hours, anaerobic
Procedure: as §1

[4] = test system: B. infantis HA-116; assay: BioLector growth on carbon sources; assay type: cell-based, Bifidobacterium infantis; parameters: key: +++: fast exponential growth reaching a plateau before 45 hours; ++: slower exponential growth reaching a plateau after 45 hours; +: slow almost linear growth, does not reach plateau during the time of fermentation; −: No significant growth for 50 h or more; conditions: 1% carbon source in MRS without glucose, 37° C., up to 72 hours, anaerobic
Procedure: as §1

[5] = test system: B. infantis R0033; assay: BioLector growth on carbon sources; assay type: cell-based, Bifidobacterium infantis; parameters: key: +++: fast exponential growth reaching a plateau before 45 hours; ++: slower exponential growth reaching a plateau after 45 hours; +: slow almost linear growth, does not reach plateau during the time of fermentation; −: No significant growth for 50 h or more; conditions: 1% carbon source in MRS without glucose, 37° C., up to 72 hours, anaerobic
Procedure: as §1

[6] = test system: B. infantis HA-116; assay: Metabolomics of culture supernatants (NMN, NAD+); assay type: cell-based, Bifidobacterium infantis
Procedure: as §1, with “[…] Sample supernatants” for “Samples”, “analyzed using metabolomics by Metabolon (NC, USA).” for “transferred to a 96 deep-well plate, spun down at 4000 rpm for 10 min at 4° C., and supernatants removed for analysis or stored at −80° C. until further analysis.”

[7] = test system: B. infantis R0033; assay: Metabolomics of culture supernatants (NMN, NAD+); assay type: cell-based, Bifidobacterium infantis
Procedure: as §1, with “[…] Sample supernatants” for “Samples”, “analyzed using metabolomics by Metabolon (NC, USA).” for “transferred to a 96 deep-well plate, spun down at 4000 rpm for 10 min at 4° C., and supernatants removed for analysis or stored at −80° C. until further analysis.”

[8] = test system: L. reuteri DSM 12246; assay: BioLector growth on carbon sources; assay type: cell-based, Lactobacillus reuteri; conditions: FIG. 3B
Procedure: as §1, with “Samples were transferred to a 96 deep-well plate, spun down at 4000 rpm for 10 min at 4° C., and supernatants removed for analysis or stored at −80° C. until further analysis.” left out

[9] = test system: L. plantarum TIFN101; assay: BioLector growth on carbon sources; assay type: cell-based, Lactobacillus plantarum; conditions: FIG. 3C
Procedure: as §1, with “Samples were transferred to a 96 deep-well plate, spun down at 4000 rpm for 10 min at 4° C., and supernatants removed for analysis or stored at −80° C. until further analysis.” left out

[10] = test system: B. bifidum R0071; assay: Metabolomics of culture supernatants (NMN, NAD+); assay type: cell-based, Bifidobacterium bifidum
Procedure: as §1, with “analysis. Sample supernatants were analyzed using metabolomics by Metabolon (NC, USA).” for “analysis.”

[11] = test system: L. reuteri DSM 12246; assay: Metabolomics of culture supernatants (NMN, NAD+); assay type: cell-based, Lactobacillus reuteri
Procedure: as §1, with “[…] Sample supernatants” for “Samples”, “analyzed using metabolomics by Metabolon (NC, USA).” for “transferred to a 96 deep-well plate, spun down at 4000 rpm for 10 min at 4° C., and supernatants removed for analysis or stored at −80° C. until further analysis.”

[12] = test system: L. plantarum TIFN101; assay: Metabolomics of culture supernatants (NMN, NAD+); assay type: cell-based, Lactobacillus plantarum
Procedure: as §1, with “[…] Sample supernatants” for “Samples”, “analyzed using metabolomics by Metabolon (NC, USA).” for “transferred to a 96 deep-well plate, spun down at 4000 rpm for 10 min at 4° C., and supernatants removed for analysis or stored at −80° C. until further analysis.”

SMILES | Ability to grow on carbon source [1] | Ability to grow on carbon source [2] | Ability to grow on carbon source [3] | Ability to grow on carbon source [4] | Ability to grow on carbon source [5] | Growth on carbon source (in words) ([1]; BioLector, FIG. 3A, FIG. 6) | NAD+ production compared with growth on lactose (in words) [6] | NAD+ production compared with growth on lactose (in words) [7] | Growth on carbon source (in words) [8] | Growth on carbon source (in words) [9] | NAD+ production (in words) [10] | NAD+ production (in words) [11] | NAD+ production (in words) [12] | NMN production (in words) [10]
CC(=O)N[C@H]1[C@H]([C@H](O)[C@H](O)CO)O[C@@](O[C@H]2[C@@H](O)[C@@H](CO)O[C@@H](O[C@H]3[C@H](O)[C@@H](O)C(O)O[C@@H]3CO)[C@@H]2O)(C(=O)O)C[C@@H]1O (some centres unmarked) [3′SL, 3′-sialyllactose] | +++ (fast exponential growth reaching a plateau before 45 hours) | +++ (fast exponential growth reaching a plateau before 45 hours) | − | − | − |  |  |  |  |  |  |  |  | 
C[C@H](O)[C@@H](O)[C@@H](O)[C@H](O)C=O [L-fucose] |  |  |  |  |  | not able to grow |  |  |  |  |  |  |  | 
CC(=O)N[C@H]1[C@H]([C@H](O)[C@H](O)CO)O[C@@](OC[C@H]2O[C@@H](O[C@H]3[C@H](O)[C@@H](O)[C@H](O)O[C@@H]3CO)[C@H](O)[C@@H](O)[C@H]2O)(C(=O)O)C[C@@H]1O [6′SL, 6′-sialyllactose] | +++ (fast exponential growth reaching a plateau before 45 hours) | +++ (fast exponential growth reaching a plateau before 45 hours) | − | − | − |  |  |  |  |  |  |  |  | 
C[C@@H]1O[C@@H](O[C@H]2[C@H](O[C@H]3[C@H](O[C@@H]4O[C@@H](C)[C@@H](O)[C@@H](O)[C@@H]4O)[C@@H](O)C(O)O[C@@H]3CO)O[C@H](CO)[C@H](O)[C@@H]2O)[C@@H](O)[C@H](O)[C@@H]1O (some centres unmarked) [DFL, difucosyllactose] |  |  |  |  |  |  | a bit more | a bit more |  |  |  |  |  | 
OC[C@H]1O[C@@H](O[C@H]2[C@H](O)[C@@H](O)C(O)O[C@@H]2CO)[C@H](O)[C@@H](O)[C@H]1O (some centres unmarked) [Lactose, lactose] | +++ (fast exponential growth reaching a plateau before 45 hours) | ++ (slower exponential growth reaching a plateau after 45 hours) | +++ (fast exponential growth reaching a plateau before 45 hours) | +++ (fast exponential growth reaching a plateau before 45 hours) | +++ (fast exponential growth reaching a plateau before 45 hours) |  |  |  | capable of growing | capable of growing | able to produce NAD+ | able to produce NAD+ | able to produce NAD+ | 
CC(=O)N[C@H]1[C@H](O[C@H]2[C@@H](O)[C@@H](CO)O[C@@H](O[C@H]3[C@H](O)[C@@H](O)C(O)O[C@@H]3CO)[C@@H]2O)O[C@H](CO)[C@@H](O)[C@@H]1O[C@@H]1O[C@H](CO)[C@H](O)[C@H](O)[C@H]1O (some centres unmarked) [LNT, lacto-N-tetraose] | +++ (fast exponential growth reaching a plateau before 45 hours) | +++ (fast exponential growth reaching a plateau before 45 hours) | +++ (fast exponential growth reaching a plateau before 45 hours) | + | − |  |  |  |  |  |  |  |  | low amounts
CC(=O)N[C@H]1[C@H](O[C@H]2[C@@H](O)[C@@H](CO)O[C@@H](O[C@H]3[C@H](O)[C@@H](O)C(O)O[C@@H]3CO)[C@@H]2O)O[C@H](CO)[C@@H](O[C@@H]2O[C@H](CO)[C@H](O)[C@H](O)[C@H]2O)[C@@H]1O (mixture of isomers) [LNnT, lacto-N-neotetraose] | +++ (fast exponential growth reaching a plateau before 45 hours) | +++ (fast exponential growth reaching a plateau before 45 hours) | ++ (slower exponential growth reaching a plateau after 45 hours) | + | − |  |  |  |  |  |  |  |  | low amounts
